Patent publication US7928057B2, “Peptide for inhibition of calcineurin, nucleic acid, antibody, and diagnostic and therapeutic methods of use” (Julius-Maximilians-Universitaet Wuerzburg, priority 2006, dated 2011)
“Also recorded” adds a separate entry of the source. Where no end group is shown, it is not given here.

Tests used:
CRM1 = molecular target: T1, CRM1 (Rattus norvegicus, UniProt Q80U96); experiment: CRM1 mediated nuclear export of CnA in cardiomyocytes; type: cell-based; conditions: full length CnA imported by Ang II stimulation, calpeptin added
T1 construct: endogenous in cells; host or cells: cardiomyocytes (neonatal rat)
T1 sequence (Q80U96 whole entry): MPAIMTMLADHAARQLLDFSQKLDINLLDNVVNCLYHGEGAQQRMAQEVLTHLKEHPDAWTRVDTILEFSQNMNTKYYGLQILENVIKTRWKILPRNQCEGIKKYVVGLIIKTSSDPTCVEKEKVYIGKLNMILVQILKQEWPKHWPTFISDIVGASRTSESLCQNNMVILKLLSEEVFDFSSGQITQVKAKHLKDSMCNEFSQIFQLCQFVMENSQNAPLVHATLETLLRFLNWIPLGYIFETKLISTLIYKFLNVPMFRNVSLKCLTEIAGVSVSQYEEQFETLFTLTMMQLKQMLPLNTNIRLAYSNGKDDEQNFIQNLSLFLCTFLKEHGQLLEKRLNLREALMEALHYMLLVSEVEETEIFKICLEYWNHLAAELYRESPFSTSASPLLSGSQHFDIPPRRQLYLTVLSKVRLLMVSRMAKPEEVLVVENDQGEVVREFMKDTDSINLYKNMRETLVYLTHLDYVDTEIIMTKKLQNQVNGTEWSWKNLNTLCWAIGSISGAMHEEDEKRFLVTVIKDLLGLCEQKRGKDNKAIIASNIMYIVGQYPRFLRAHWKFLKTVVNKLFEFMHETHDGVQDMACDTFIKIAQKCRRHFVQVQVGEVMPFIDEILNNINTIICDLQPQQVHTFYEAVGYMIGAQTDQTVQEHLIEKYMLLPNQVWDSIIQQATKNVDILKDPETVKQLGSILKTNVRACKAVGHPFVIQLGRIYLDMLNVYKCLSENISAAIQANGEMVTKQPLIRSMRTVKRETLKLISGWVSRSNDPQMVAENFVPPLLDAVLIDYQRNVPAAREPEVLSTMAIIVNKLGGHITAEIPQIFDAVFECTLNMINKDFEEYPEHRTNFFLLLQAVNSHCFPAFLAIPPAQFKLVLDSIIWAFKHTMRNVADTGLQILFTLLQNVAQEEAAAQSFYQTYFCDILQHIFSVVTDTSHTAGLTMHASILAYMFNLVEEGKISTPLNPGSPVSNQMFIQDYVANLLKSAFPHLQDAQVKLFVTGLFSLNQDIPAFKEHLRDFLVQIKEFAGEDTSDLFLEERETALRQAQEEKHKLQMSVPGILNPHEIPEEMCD
Protocol: To address whether CnA nuclear export is mediated by CRM1, experiments using the CRM1 specific inhibitor, leptomycin B (LMB), were performed. Agonist-dependent nuclear import of full length CnA was achieved by Ang II stimulation. Calpeptin was added to prevent proteolysis of CnA.

[1] = system: cJUN, ERK 1/2, GATA4, NFAT2; experiment: Specificity: nuclear accumulation of other transcription factors in phenylephrin stimulated cardiomyocytes; type: cell-based; conditions: cardiomyocytes stimulated with phenylephrin; FIG. 9
Excerpt: The inventor also analyzed the specificity with the peptide (AAVALLPAVLAALAA KQECKIKYSERV SEQ ID NO: 5). In theory this peptide that mimics the Calcineurin NLS saturates the binding site on importin and therefore might completely block importin function for other transcription factors as well.

calcineurin (CnA) = experiment: CnA phosphatase activity (specific phosphosubstrate RII, Biomol kit); type: biochemical, rat; conditions: cardiomyocytes stimulated with Ang II (10 μM); n=8, p=not significant
Protocol: Neonatal rat cardiomyocytes of Wistar rats were isolated as described previously (Ritter et al., 2003). Cells were resuspended in minimum essential medium/1% FCS. After preplating, the cardiomyocyte containing supernatant was recovered, and cells were plated in minimum essential medium on 6-well plates at a density of 1×10^6 cells per well. The medium for cardiomyocytes contained 5-bromo-2′-deoxyuridine (0.1 mmol/L) to suppress fibroblast growth. Fibroblast contamination of cardiomyocyte cultures was between 4% and 7% as regularly determined by immunohistochemical staining for troponin T. HeLa cells were grown in DMEM/5% FCS (Sigma). […]
NF-ATc reporter plasmid comprised the II-2 promoter followed by luciferase. Luciferase activity was determined according to the manufacturer's protocol (Promega). CnA phosphatase activity was determined using a commercial kit (CnA kit assay, Biomol) that measures effect on a specific CnA phosphosubstrate. […]
Phosphatase activity, transcriptional activity, protein synthesis, cell size and makers of myocardial hypertrophy in response to the peptide related inhibition of CnA nuclear import were examined. Phosphatase activity was assessed employing a specific substrate (RII) for can (Ritter et al., 2002). Cardiomyocytes were stimulated with Ang II (10 μM), and CnA phosphatase activity was measured in the presence of the NLS peptide or a non sense control peptide. […]

[2] = molecular target: T2, calcineurin (CnA)/importin β1 interaction (Homo sapiens, UniProt Q14974); experiment: Peptide competition / co-immunoprecipitation of calcineurin with importin β1; type: binding; conditions: HeLa cells transfected with GFP-tagged CnA mutants (FIG. 3)
T2 construct: expressed in transfected cells; host or cells: HeLa cells (importin β1 endogenous, EGFP-CnAβ transfected)
T2 sequence (Q14974 whole entry): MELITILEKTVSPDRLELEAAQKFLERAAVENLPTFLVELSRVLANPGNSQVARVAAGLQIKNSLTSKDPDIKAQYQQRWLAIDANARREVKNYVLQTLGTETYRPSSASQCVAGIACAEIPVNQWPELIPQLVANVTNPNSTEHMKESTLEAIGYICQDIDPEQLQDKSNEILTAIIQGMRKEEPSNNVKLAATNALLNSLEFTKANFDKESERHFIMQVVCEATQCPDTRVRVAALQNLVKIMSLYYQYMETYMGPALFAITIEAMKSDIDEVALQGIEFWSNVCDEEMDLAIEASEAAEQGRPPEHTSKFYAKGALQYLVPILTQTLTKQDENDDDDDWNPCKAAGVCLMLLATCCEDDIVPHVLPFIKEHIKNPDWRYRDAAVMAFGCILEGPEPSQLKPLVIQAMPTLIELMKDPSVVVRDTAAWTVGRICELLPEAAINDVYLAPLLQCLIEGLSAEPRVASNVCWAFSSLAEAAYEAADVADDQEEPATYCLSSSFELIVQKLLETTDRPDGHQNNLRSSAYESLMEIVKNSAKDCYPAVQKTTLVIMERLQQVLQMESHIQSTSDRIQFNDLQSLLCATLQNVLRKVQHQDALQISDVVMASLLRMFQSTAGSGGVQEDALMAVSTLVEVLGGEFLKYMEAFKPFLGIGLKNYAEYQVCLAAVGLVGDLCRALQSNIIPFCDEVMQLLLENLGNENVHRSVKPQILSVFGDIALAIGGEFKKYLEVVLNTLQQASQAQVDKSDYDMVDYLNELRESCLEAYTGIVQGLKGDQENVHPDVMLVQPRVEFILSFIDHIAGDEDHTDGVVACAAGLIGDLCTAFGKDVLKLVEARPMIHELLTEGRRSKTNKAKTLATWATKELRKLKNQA
Protocol: Immunoprecipitation of the CnA/importin complexes was performed with importin β1 antibodies, detection with a GFP antibody.
Epitope-tagged derivatives of calcineurin Aβ containing amino-terminal EGFP were generated using the mammalian expression vector pEGFP-C3 (BD Bioscience Clontech). For cloning of calcineurin mutants the mammalian expression vector pCMV-Sport6 containing the directionally cloned cDNA of human calcineurin Aβ was used (Invitrogen). The following mutants have been amplified by PCR, digested with XbaI and XhoI and cloned into the XbaI and XhoI sites of the described plasmid: CnAβ(full), CnAβ 1-415, CnAβ 1-425, CnAβ 1-445, CnAβ 1-465, CnAβ 1-485 and CnAβ 171-190. For these truncated mutants different reverse oligonucleotides were designed with subsequent N-terminal binding sites. The forward primer, binding at the N-terminus of calcineurin, was identical for each plasmid apart from the CnA(171-190) mutant. For this derivative primers are bound upstream of aa 171 and downstream of aa 190, respectively. Two internal mutants CnAβ(Δ420-434) and CnAβ(Δ420-445) were cloned into the XbaI and XhoI sites of pEGFP-C3 using a two step strategy. […]
(§1) The subcellular distribution of calcineurin was determined by immunofluorescence stainings. The primary antibodies used in fluorescence staining are described elsewhere (Burkhard et al., 2005). […]

Ang II treated mice = experiment: Ang II (osmotic minipump) induced myocardial hypertrophy in mice; type: in vivo; conditions: for dilation of the left ventricle (left ventricular end diastolic diameter, LVEDD): mice with implanted mini-osmotic pumps with AngII, FIG. 8; for development of myocardial hypertrophy in vivo (heart/body weight ratio, molecular markers, echocardiography): cyclic peptide 25 mg/kg body weight/day i.p.
Protocol: For in vivo use the blocking peptide, that mimics the calcineurin nuclear localization signal (NLS) received a peptide extension to increase membrane permeability and was synthesised as a cyclic peptide to withstand proteolysis of N- and C-terminal proteases. This peptide was administered twice daily at a concentration of 25 mg/kg body weight/day by i.p. injections into mice. The mice were treated with implanted osmotic minipumps to release either angiotensin II or saline as control.
The inventor now extended his experiments to in vivo data.

[3] = system: nuclear import of calcineurin (CnA) via importin β1; experiment: Peptide competition assay: nuclear import of calcineurin in cardiomyocytes; type: cell-based; conditions: neonatal rat cardiomyocytes stimulated with Ang II; peptide added to the medium (1 μM)
Protocol: (§2) Neonatal rat cardiomyocytes were incubated with a peptide mimicking the NLS sequence of CnA (SEQ ID NO:2) and stimulated with Ang II ([…]). […] Nuclear import of CnA was therefore prevented. Control experiments were performed with a non-sense peptide SEQ ID NO: 3).
(§3) Neonatal rat cardiomyocytes of Wistar rats were isolated as described previously (Ritter et al., 2003). Cells were resuspended in minimum essential medium/1% FCS. After preplating, the cardiomyocyte containing supernatant was recovered, and cells were plated in minimum essential medium on 6-well plates at a density of 1×10^6 cells per well. The medium for cardiomyocytes contained 5-bromo-2′-deoxyuridine (0.1 mmol/L) to suppress fibroblast growth. Fibroblast contamination of cardiomyocyte cultures was between 4% and 7% as regularly determined by immunohistochemical staining for troponin T. HeLa cells were grown in DMEM/5% FCS (Sigma). 48 hours after preparation, cells were stimulated with […] angiotensin II (Ang II). Cells were harvested 24 hours after stimulation. Concentrations were as follows: Ang II: 10 μM, calpeptin: 10 μM, NLS peptide and control peptide: 1 μM, respectively.
as §1

[4] = system: CnA/NF-ATc signalling pathway; experiment: NF-ATc luciferase reporter plasmid transcriptional activity; type: cell-based, rat
Protocol: as §3
NF-ATc reporter plasmid comprised the II-2 promoter followed by luciferase. Luciferase activity was determined according to the manufacturer's protocol (Promega). CnA phosphatase activity was determined using a commercial kit (CnA kit assay, Biomol) that measures effect on a specific CnA phosphosubstrate. Free PO4 was indicated by a malachite green dye. The use of this kit has been described previously (Ritter et al., 2002).
(§4) Phosphatase activity, transcriptional activity, protein synthesis, cell size and makers of myocardial hypertrophy in response to the peptide related inhibition of CnA nuclear import were examined. Phosphatase activity was assessed employing a specific substrate (RII) for can (Ritter et al., 2002). Cardiomyocytes were stimulated with Ang II (10 μM), and CnA phosphatase activity was measured in the presence of the NLS peptide or a non sense control peptide. […] Similarly, myocardial hypertrophy, as evidenced by protein synthesis (707±21% vs. 133±12%, n=8, p<0.05), cell size (1191±91 μm^2 vs. 728±65 μm^2, n=8, p<0.05) (FIG. 5B), and expression of brain natriuretic peptide (BNP) (163±11% vs. 88±8%, n=8, p<0.05) (FIG. 5C), were suppressed by the NLS peptide.

[5] = system: neonatal rat cardiomyocytes; experiment: Markers of myocardial hypertrophy in Ang II stimulated cardiomyocytes (protein synthesis, cell size, BNP); type: cell-based; conditions: cardiomyocytes stimulated with Ang II (10 μM); n=8, p<0.05
Protocol: as §2, §3, §4

NFAT Luciferase reporter = NFAT Luciferase reporter transgenic mice treated with angiotensin II; type: in vivo
T cells = T cells stimulated with spleen dendritic cells (H3-thymidin incorporation); type: cell-based; conditions: T cells stimulated with spleen dendritic cells and simultaneously treated with peptide; FIG. 6
Excerpt: Bars indicate protein synthesis (H3-thymidin incorporation).
The inventor now extended the experiments to T-cells and to in vivo experiments in mice.

Row | Compound | nuclear accumulation/import of selected transcription factors (cJUN, ERK 1/2, GATA4, NFAT2) [1] | total CnA phosphatase activity (calcineurin (CnA)) [%] | calcineurin interaction/binding with importin β1 [2] | dilation of the left ventricle (left ventricular end diastolic diameter, LVEDD) (Ang II treated mice) | nuclear import (translocation) of CnA [3] | development of myocardial hypertrophy in vivo (heart/body weight ratio, molecular markers, echocardiography) (Ang II treated mice; Ang II minipump mice) | other results
1 | CCC(=C/[C@H](C)C/C=C/C(C)=C/[C@@H](C)C(=O)[C@@H](C)[C@H](O)[C@@H](C)C/C(C)=C/C(=O)O)/C=C/[C@@H]1OC(=O)C=C[C@@H]1C [LMB, leptomycin B] | – | – | – | – | – | – | nuclear export of CnA (CRM1): suppressed nuclear export of CnA
2 | AAVALLPAVLAALAA KQECKIKYSERV (AAVALLPAVLAALAAKQECKIKYSERV; alternative nucl loc signal plus membrane anker) [SEQ ID NO: 5] | did not block import | – | – | – | – | – | –
3 | AAVALLPAVLLALLAAQECAIAYSEYV (control peptide and membrane anker) [non sense peptide used in control experiments, reference compound] | – | 289±17 | did not interfere with the calcineurin/importin binding | did not prevent left ventricular dilation | not inhibited | – | –
4 | AAVALLPAVLLALLAKQECKIKYSERV (nuclear localisation signal and membrane anker) [NLS peptide] | – | 273±11 | prevented CnA binding to importin β1; also recorded: abrogated the interaction of calcineurin and importin β1 | dilation could prevented | suppressed calcineurin nuclear import | able to suppress the development of myocardial hypertrophy in vivo | transcriptional activity of the CnA/NF-ATc signalling pathway ([4]; cardiomyocytes stimulated with Ang II (10 μM), n=8, p<0.05): 123±8%; transcriptional activity of calcineurin/NF-ATc (NF-ATc luciferase reporter plasmid), in words ([4]; neonatal rat cardiomyocytes, Ang II, FIG. 5A bottom, FIG. 5D): dose dependent manner; f-MHC expression as molecular marker of hypertrophy (Ang II treated mice; mice treated with angiotensin for 4 weeks, FIG. 7B): prevented expression of this marker; cell size [5]: 728±65 μm^2; expression of brain natriuretic peptide (BNP) [5]: 88±8%; protein synthesis [5]: 133±12%; Luciferase activity (NFAT Luciferase reporter): suppressed Luciferase activity
5 | KQECKIKYSERV [SEQ ID NO: 2] | – | – | – | – | – | – | toxic effect ([4]; higher concentrations (>1 μM), values below background levels of untreated cardiomyocytes, FIG. 5D): toxic effect is possible
6 | blocking peptide: mimics the calcineurin NLS, with peptide extension to increase membrane permeability; synthesised as a cyclic peptide for in vivo use (AAVALLPAVLLALLAKQECKIKYSERV; also: synthesised as cyclic peptide, mode not given here) | did not prevent nuclear accumulation | – | – | – | – | able to prevent the development of myocardial hypertrophy; also recorded: prevents myocardial hypertrophy | T cell protein synthesis (H3-thymidin incorporation) / activation of lymphocytes (T cells): inhibited significantly; also recorded: significantly prevented activation of lymphocytes; calcineurin entry into the nucleus in vivo (Ang II treated mice; Ang II minipump mice, cellular level): suppressed calcineurin entry into the nucleus; heart weight (Ang II treated mice; mice treated with Ang II for 4 weeks, cyclic peptide with membrane permeability extension, 25 mg/kg body weight/day i.p. twice daily, FIG. 7A): prevented an increase in heart weight
